Where two headings read alike, the source gives them in different places.
Test system: Prostate-specific antigen (PSA) production in LNCaP cells
Assay: PSA Assay (inhibition of PSA production in prostate cancer cells, ELISA)
Format: cell-based, human
[1] = Homo sapiens, LNCaP, 72 h, read-out: LNCAP IC50 (uM), inhibition of PSA production, LNCaP cells, R1881 1 ng/ml, three days, seven point assay

| Structure (SMILES) | IC50 (read-out: LNCAP IC50, inhibition of PSA production, LNCaP cells, R1881 1 ng/ml, three days, seven point assay) [µM] | IC50 [1] [µM] |
| --- | --- | --- |
| CC1(C)C(=O)N(c2ccc(C#N)c(Cl)c2F)C(=S)N1c1ccc(CCCC#N)cc1 [Example 59, 2-chloro-4-(3-(4-(3-cyanopropyl)phenyl)-4,4-dimethyl-5-oxo-2-thioxoimidazolidin-1-yl)-3-fluorobenzonitrile] | 0.48 | – |
| CC1(C)C(=O)N(c2ccc(C#N)c(C(F)(F)F)c2F)C(=S)N1c1ccc(CCCc2ncc[nH]2)cc1 [Example 19, 4-(3-(4-(3-(1H-imidazol-2-yl)propyl)phenyl)-4,4-dimethyl-5-oxo-2-thioxoimidazolidin-1-yl)-3-fluoro-2-(trifluoromethyl)benzonitrile] | – | 0.76 |
| CNC(=O)C(C)(C)CCc1ccc(N2C(=S)N(c3ccc(C#N)c(C(F)(F)F)c3F)C(=O)C2(C)C)cc1 [Example 22, 4-{4-[3-(4-Cyano-2-fluoro-3-trifluoromethyl-phenyl)-5,5-dimethyl-4-oxo-2-thioxo-imidazolidin-1-yl]-phenyl}-2,2,N-trimethyl-butyramide] | – | 0.6 |

From patent US9216957B2, “Androgen receptor antagonists and uses thereof” (SUZHOU KINTOR PHARMACEUTICALS, INC., priority 2011, dated 2015)
